From ChEMBL document CHEMBL3991601, “The target landscape of clinical kinase drugs” (Science, 2017)
The source made the active and inactive calls. Cut-off read from the data, not from the text of the source: actives have a measured Kd and inactives only a lower limit.

How the values were obtained:
[1] = target: Glycogen synthase kinase-3 alpha (Homo sapiens, UniProt P49840)
[2] = target: T1, Serine/threonine-protein kinase TAO1 (Homo sapiens, UniProt Q7L7X3)
T1 sequence (Q7L7X3 whole entry): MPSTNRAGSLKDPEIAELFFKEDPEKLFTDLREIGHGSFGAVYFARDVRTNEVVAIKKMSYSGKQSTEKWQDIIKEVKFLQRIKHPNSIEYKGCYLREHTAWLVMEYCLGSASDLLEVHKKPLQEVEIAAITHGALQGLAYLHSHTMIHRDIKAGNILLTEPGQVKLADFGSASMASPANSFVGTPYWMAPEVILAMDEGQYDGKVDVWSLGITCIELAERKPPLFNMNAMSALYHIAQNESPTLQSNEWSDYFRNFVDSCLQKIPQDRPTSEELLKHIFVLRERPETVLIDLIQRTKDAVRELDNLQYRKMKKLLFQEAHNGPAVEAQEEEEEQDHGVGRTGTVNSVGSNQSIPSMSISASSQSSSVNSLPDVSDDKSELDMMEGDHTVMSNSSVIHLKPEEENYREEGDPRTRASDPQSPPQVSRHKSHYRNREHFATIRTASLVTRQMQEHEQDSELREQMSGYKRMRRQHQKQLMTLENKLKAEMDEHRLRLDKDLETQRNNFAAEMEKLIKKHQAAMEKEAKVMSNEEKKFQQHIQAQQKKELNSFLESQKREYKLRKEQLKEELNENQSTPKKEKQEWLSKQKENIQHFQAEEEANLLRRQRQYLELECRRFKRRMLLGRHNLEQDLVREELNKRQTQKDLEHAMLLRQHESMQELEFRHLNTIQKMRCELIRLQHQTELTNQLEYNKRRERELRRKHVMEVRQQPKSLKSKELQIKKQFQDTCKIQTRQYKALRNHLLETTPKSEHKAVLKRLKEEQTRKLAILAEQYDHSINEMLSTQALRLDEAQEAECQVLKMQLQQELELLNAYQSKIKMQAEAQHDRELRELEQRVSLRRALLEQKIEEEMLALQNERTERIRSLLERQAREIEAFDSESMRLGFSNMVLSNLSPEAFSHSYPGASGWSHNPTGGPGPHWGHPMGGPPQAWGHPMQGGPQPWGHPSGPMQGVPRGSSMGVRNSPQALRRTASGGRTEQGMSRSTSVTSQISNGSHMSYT

[3] = target: T2, Serine/threonine-protein kinase TAO3 (Homo sapiens, UniProt Q9H2K8)
T2 sequence (Q9H2K8 whole entry): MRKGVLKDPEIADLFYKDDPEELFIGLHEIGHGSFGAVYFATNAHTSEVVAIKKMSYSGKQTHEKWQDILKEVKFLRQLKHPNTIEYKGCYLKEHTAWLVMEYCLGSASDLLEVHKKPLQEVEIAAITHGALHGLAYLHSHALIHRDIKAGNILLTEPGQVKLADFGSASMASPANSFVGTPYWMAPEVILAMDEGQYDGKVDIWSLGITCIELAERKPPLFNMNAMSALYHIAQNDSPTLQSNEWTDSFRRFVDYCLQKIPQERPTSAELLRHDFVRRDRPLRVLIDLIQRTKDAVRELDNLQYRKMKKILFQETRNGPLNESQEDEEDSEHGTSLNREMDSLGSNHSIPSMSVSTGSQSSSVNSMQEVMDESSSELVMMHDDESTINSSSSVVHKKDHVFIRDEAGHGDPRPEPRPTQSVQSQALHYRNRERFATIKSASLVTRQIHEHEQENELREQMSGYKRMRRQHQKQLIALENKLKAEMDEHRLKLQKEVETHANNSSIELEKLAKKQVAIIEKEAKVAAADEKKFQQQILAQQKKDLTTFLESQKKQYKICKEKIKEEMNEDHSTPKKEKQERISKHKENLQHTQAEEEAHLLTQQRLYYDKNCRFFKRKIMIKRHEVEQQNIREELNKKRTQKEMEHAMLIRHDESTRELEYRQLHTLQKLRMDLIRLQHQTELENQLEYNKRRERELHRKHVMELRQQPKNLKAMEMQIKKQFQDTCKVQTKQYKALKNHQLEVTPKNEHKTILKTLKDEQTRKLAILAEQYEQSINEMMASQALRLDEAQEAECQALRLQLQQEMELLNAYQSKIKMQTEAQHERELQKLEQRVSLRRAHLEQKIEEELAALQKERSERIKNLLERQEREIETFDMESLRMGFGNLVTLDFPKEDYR

Wee1-like protein kinase = Wee1-like protein kinase (Homo sapiens, UniProt P30291)
Sequence of Wee1-like protein kinase (P30291 whole entry): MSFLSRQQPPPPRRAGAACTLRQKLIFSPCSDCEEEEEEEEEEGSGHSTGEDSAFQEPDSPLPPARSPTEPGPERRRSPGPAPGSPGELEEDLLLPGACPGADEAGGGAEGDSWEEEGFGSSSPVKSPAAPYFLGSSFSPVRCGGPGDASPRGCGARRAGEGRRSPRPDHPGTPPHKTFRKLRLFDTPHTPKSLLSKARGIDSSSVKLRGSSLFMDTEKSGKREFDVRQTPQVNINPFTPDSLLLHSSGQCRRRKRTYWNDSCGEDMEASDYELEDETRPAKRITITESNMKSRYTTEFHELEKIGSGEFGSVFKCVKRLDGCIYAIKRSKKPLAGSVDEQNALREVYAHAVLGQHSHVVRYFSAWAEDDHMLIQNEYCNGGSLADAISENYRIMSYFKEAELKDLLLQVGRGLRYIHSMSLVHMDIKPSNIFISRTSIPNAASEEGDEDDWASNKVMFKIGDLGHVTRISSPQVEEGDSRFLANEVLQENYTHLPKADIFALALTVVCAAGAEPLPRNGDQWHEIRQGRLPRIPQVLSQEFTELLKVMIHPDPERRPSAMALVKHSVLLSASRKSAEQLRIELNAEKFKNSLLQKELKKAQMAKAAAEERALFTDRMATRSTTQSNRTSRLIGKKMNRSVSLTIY

[4] = target: T3, Bone morphogenetic protein receptor type-2 (Homo sapiens, UniProt Q13873)
T3 sequence (Q13873 whole entry): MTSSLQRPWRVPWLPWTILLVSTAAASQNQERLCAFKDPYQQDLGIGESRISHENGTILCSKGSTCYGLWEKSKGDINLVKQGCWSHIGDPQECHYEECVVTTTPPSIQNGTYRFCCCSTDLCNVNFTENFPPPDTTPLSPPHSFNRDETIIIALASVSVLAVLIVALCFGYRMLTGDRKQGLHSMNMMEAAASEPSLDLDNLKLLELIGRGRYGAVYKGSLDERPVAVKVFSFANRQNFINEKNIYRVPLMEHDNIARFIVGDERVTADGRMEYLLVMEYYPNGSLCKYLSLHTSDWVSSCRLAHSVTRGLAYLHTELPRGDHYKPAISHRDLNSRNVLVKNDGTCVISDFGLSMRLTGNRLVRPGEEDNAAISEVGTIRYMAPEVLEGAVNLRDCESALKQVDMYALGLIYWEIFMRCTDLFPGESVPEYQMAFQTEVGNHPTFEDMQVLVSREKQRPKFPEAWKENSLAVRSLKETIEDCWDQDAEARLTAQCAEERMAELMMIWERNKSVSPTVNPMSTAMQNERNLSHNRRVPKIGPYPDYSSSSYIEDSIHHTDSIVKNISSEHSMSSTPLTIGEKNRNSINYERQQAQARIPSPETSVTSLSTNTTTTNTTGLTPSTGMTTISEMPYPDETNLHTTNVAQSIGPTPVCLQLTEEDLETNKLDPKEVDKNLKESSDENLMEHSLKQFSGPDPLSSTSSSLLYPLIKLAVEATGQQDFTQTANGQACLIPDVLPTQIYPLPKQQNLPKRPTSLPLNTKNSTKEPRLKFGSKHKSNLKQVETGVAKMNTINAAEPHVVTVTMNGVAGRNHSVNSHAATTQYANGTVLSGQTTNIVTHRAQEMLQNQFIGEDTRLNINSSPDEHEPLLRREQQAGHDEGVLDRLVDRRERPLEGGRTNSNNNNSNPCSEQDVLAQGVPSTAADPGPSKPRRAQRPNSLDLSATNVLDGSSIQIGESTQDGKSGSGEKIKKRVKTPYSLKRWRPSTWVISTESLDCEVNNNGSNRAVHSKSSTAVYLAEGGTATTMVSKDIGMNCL

[5] = target: Dual specificity mitogen-activated protein kinase kinase 2 (Homo sapiens, UniProt P36507)
Sequence of Dual specificity mitogen-activated protein kinase kinase 2 (P36507 whole entry): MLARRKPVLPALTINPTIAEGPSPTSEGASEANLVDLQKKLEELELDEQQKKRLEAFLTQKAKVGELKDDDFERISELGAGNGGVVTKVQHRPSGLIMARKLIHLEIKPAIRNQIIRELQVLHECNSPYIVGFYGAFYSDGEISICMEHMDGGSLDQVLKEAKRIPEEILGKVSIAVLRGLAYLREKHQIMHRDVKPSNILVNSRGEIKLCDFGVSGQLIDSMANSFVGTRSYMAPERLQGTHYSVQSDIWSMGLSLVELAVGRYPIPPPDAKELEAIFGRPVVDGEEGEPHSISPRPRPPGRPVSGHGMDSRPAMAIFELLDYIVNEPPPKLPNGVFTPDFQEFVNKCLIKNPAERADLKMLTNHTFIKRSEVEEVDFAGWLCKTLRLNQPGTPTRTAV
Note: in the data inactive means no Kd found up to 30 µM.

Sequence of Glycogen synthase kinase-3 alpha (P49840 whole entry): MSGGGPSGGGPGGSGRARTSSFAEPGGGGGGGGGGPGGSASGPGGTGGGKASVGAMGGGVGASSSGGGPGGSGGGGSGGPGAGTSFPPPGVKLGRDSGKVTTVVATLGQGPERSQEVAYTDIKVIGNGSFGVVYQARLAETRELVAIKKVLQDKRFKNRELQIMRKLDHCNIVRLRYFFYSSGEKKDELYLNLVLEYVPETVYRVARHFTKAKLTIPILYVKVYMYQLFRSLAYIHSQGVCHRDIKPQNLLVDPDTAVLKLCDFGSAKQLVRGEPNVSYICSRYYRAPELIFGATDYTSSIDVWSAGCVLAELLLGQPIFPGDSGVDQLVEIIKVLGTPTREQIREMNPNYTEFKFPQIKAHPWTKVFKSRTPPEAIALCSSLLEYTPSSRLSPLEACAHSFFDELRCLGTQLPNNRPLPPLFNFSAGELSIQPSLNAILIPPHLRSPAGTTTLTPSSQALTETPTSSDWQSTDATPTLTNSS

Row | Kd [1] | Kd [2] | Kd [3] | Kd (Wee1-like protein kinase) | Kd [4] | Kd [5] | Compound
1 | > 30 µM (inactive) | > 30 µM (inactive) | > 30 µM (inactive) | 0.252 µM (active) | > 30 µM (inactive) | > 30 µM (inactive) | C[C@@H](NC(=O)c1ncnc(N)c1Cl)c1ncc(C(=O)Nc2cc(C(F)(F)F)c(Cl)cn2)s1 [TOVORAFENIB]
2 | > 30 µM (inactive) | > 30 µM (inactive) | > 30 µM (inactive) | > 30 µM (inactive) | > 30 µM (inactive) | > 30 µM (inactive) | Cn1ncc(Cl)c1-c1cc(C(=O)N[C@H](CN)Cc2ccc(F)c(F)c2)oc1Cl [UPROSERTIB]
3 | > 30 µM (inactive) | > 30 µM (inactive) | > 30 µM (inactive) | > 30 µM (inactive) | > 30 µM (inactive) | 4.21 µM | CC(C)c1cc(CNc2nc(Nc3cc(C4CC4)[nH]n3)cc(N3CCN(C)CC3)n2)on1 [XL-228]
4 | 1.1 µM (active) | 2.03 µM (active) | > 30 µM (inactive) | > 30 µM (inactive) | > 30 µM (inactive) | > 30 µM (inactive) | C[C@@H](N)c1ccc(C(=O)Nc2ccnc3[nH]ccc23)cc1 [Y-39983]
5 | 0.579 µM (active) | 2.14 µM | 2.86 µM (active) | > 30 µM (inactive) | > 30 µM (inactive) | > 30 µM (inactive) | CN1C/C=C/CCOc2cccc(c2)-c2ccnc(n2)Nc2cccc(c2)C1 [ZOTIRACICLIB]

Row | Compound | Kd [1] | Kd [2] | Kd [3] | Kd (Wee1-like protein kinase) | Kd [4] | Kd [5]
6 | Cc1cc(Nc2ncnc3ccc(NC4=NC(C)(C)CO4)cc23)ccc1Oc1ccn2ncnc2c1 [TUCATINIB] | > 30 µM (inactive) | > 30 µM (inactive) | > 30 µM (inactive) | > 30 µM (inactive) | > 30 µM (inactive) | > 30 µM (inactive)
